The test system of one assay is isolated rat hearts. As to the kind of experiment: Langendorff isolated heart model, ischemia/reperfusion; recovery of contractibility. The settings on record: 30 min regional ischemia, 60 min reperfusion; N-acetyl cysteine 36.8 mmol/L, deferoxamine 3.9 mmol/L; N=3 rats per group. Also noted: species or system Sprague-Dawley rat. The text has this: Laboratory trials in murine model, by means of the use of the Langendorff isolated heart model, allowed to preliminarily establish the contribution of the secondary components of the solution in isolated form, in conjunction and in tri-association with sodium ascorbate on the attenuation of lethal reperfusion by means of the evaluation of the percentage of recovery of contractibility, subsequent to the reestablishment of the blood flow, […]
Sprague-Dawley adult male rats (250 to 300 g) were anesthetized with pentobarbital (80 mg/kg IP). Heparine (100 U/kg IV) was administered and the hearts were rapidly extracted and perfused with Krebs-Henseleit solution oxygenated in a Langendorff perfusion system at 37° C. […] The ventricular pressure was measured with a latex balloon inserted, in the left ventricular and connected to a pressure transductor. […]
Evaluation of the injury: The capacity was measured of both components isolated, in conjunction and in tri-association with sodium ascorbate in high dosage, in order to recover the cardiac contractibility, loss associated to the injury due to reperfusion.
For the analysis of the results parametric statistic of the continuous variables was used, expressing the position in terms of arithmetic mean and dispersion based on the standard deviation. The differences between multiple groups were analysed by means of ANOVA with Bonferroni test as Post-Hoc. […]

For assay [1], the system named is patients diagnosed with acute myocardium infarction with indication of primary angioplasty. Kind of assay: PREVEC Phase II randomized, double blind, placebo controlled clinical trial; left ventricular ejection fraction by cardiac magnetic resonance. In kind it is in vivo, human. As for the experimental part:
In a group of 50 patients subjected to a primary angioplasty due to acute infarction diagnosis, treated only with massive dosage of sodium ascorbate (equivalent dosage to the one used in the three component formulation), a recovery was observed that has never before been reported of the cardiac function in a medium term, only referable to an attenuation of the late effects of the injury due to reperfusion. The evaluation was carried out by means of cardiac magnetic resonance, technique considered the present gold standard for this kind of studies.
A randomized, double blind, placebo controlled clinical trial was applied to patients diagnosed with acute myocardium infarction with indication of primary angioplasty, previously enrolled.
As inclusion criteria, was defined: Individuals of any sex older than 18 years of age; Latency of admission of up to 12 hours since presenting symptoms; First myocardium infarction; Killip 1 and 2; Capacity and willingness to sign consent form.
As exclusion criteria was established: Renal or hepathic insufficiency history; Cardiac failure history (NYHA III, IV); Cardiogenic shock; Comorbility that determines a life expectancy<6 months; Participation in another investigation; Pregnancy; Glucose 6—Phosphate Dehydrogenase deficiency.
Patients were administered an oral dose of vitamin E (800 IU), followed by a sodium ascorbate infusion (320 mmol/L). The placebo group received an inert infusion of sodium chloride solution of the same osmolarity as the sodium ascorbate infusion. Serial blood samples were taken to analyse biomarkers related to myocardium, injury, oxidative stress and inflammation in order to evaluated efficiency on injury due to early reperfusion. […]
The statistical analysis of the preliminary results, was carried out using non parametric statistics, using the median as position measurement, interquartile range as dispersion measurement and the Mann-Whitney U test to determine the statistical significance. Differences between the multiple groups was analysed by means of a Kruskal-Wallis test. […]

Consider `CC(=O)N[C@@H](CS)C(=O)O` [N-acetyl cysteine], for which, in the assay with isolated rat hearts, the “improvement of recovery of contractibility regarding the control group (Placebo)” value came to 189%.

Consider `CC(=O)N(O)CCCCCNC(=O)CCC(=O)N(O)CCCCCNC(=O)CCC(=O)N(O)CCCCCN` [deferoxamine], for which the “improvement of recovery of contractibility regarding the control group (Placebo)” value in the assay with isolated rat hearts was determined as 113%.

Consider `O=C1O[C@H]([C@@H](O)CO)C([O-])=C1O.[Na+]` [sodium ascorbate], for which, in assay [1] (day 6 after primary angioplasty, sodium ascorbate infusion 320 mmol/L after oral vitamin E 800 IU), the “early cardiac function (left ventricular ejection fraction), treated versus placebo” value is “did not show any difference”. In assay [1] (difference of values 84 and six days after angioplasty, p<0.05), the “change in left ventricular ejection (difference between day 84 and day 6), treated versus placebo” value is listed as “significantly higher”. Moreover, the “left ventricular ejection fraction, higher in treated patients versus placebo” value in assay [1] (three months (day 84) after primary angioplasty, sodium ascorbate infusion 320 mmol/L after oral vitamin E 800 IU, p<0.05) is listed as 33%.
